According to patent publication US9738720B2, “Monoclonal antibodies against HER2 epitope and methods of use thereof” (Mersana Therapeutics, Inc., priority 2014, dated 2017):

Experiments:
[1] = target: T1, HER2 protein in SKBR3 cells (Homo sapiens, UniProt P04626); assay: HER2 degradation, western analysis; format: cell-based; settings: 4 hours; for HER2 remaining: 10 μg/ml each, combined with trastuzumab and pertuzumab; for full length HER2, percentage of untreated cells: 10 μg/ml, test antibody alone or in combination with trastuzumab
T1 construct: endogenous in cells; host or cells: SKBR3
Procedure: The effect of anti-HER2 antibodies on HER2 degradation in SKBR3 cells was determined by western analysis after antibody treatment. 300,000 SKBR3 cells were plated in DMEM media with 10% FBS in each well of 6 well culture dishes and grown overnight at 37° in 5% CO2 atmosphere. The media was removed and replaced with fresh media containing 10 μg/ml of each antibody and incubated for 4 hours. The cells were washed once with ice cold PBS and lysed by addition of 200 μl of buffer containing 50 mM Tris HCl, pH 7.4, 150 mM NaCl, 1% Triton X-100, cOmplete Protease Inhibitor cocktail tablets (Roche, Indianapolis, Ind.) and PhosSTOP phosphatase Inhibitor cocktail tablets (Roche, Indianapolis, Ind.). Lysates were centrifuged at 15,000 rpm for 15 minutes at 4° to remove insoluble debris. […] The separated proteins were transferred to a nitrocellulose membrane on a semi-dry electrophoretic transfer system (Bio-Rad, Transblot system) for 30 minutes at 10 volts in transfer buffer (Life Technologies, Cat.# NP0006) containing 10% methanol. […] After the incubation the membrane was washed 3 times with 10 ml TTBS and then incubated for 1 hour with secondary antibodies: a goat anti-rabbit IgG conjugated to IRdye® 800CW (Li-Cor, Cat.#926-32211) and a goat anti-mouse IgG conjugated to IRdye® 680RD (Li-Cor, Cat.#926-68070) both diluted 1:10,000 in blocking buffer. The membrane was again washed 3 times with 10 ml TTBS and scanned on a Li-Cor Odyssey scanner. The bands corresponding to full length HER2 protein and to actin were quantified using the scanner software. Each HER2 band was normalized to the actin band and expressed as a percentage of HER2 protein from cells that were not treated with any anti-HER2 antibodies.

SKBR3 cells [2] = assay: HER2 internalization in SKBR3 cells by fluorescence microscopy; format: cell-based; settings: 90 minutes, in combination with trastuzumab-Alexa-647 and pertuzumab
Procedure: The effect of a combination of anti-HER2 antibodies on the HER2 internalization in SKBR3 cells was investigated by fluorescence microscopy. […] SKBR3 cells were seeded in 4 chamber microscope slides and allowed to attach by overnight growth in DMEM media (ATCC, Manassas, Va., Cat.#30-2002) with 10% fetal bovine serum (FBS) (Gibco®, Life Technologies, Grand Island, N.Y., Cat.#16140-071) at 37° in 5% CO2. […] The location of trastuzumab was visualized using fluorescence microscope.

SKBR3 cells [3] = assay: Internalization rate with anti-HER2 antibody combination; format: cell-based
Procedure: For the assay, 40,000 SKBR3 cells were plated in DMEM media containing 10% FBS, in each well of three 96 well plates (black colored plates with clear bottomed wells) and allowed to attach overnight at 37° in 5% CO2. The next day the cells were treated with antibodies as follows. […] The unbound antibody was removed by washing the cells two times with ice cold media. For detection, 5 μg/ml of an Alexa 647 labelled anti-human IgG Fab fragment was added to each well in ice cold media and incubated on ice for 1 hr. The unbound secondary antibody was removed by washing each well 2 times with ice cold media. […] Each treatment was carried out in triplicate. One set of wells were treated with the Alexa 647 labelled anti-human IgG monovalent Fab fragment alone, and the fluorescence measured in these wells was used to subtract background fluorescence.
One plate was left on ice to determine the time 0 values for each treatment, and the other plates were incubated at 37° C. After 1.5 hours, one plate from 37° C., and the time 0 plate, were washed 2 times with ice cold PBS and scanned using the 680 nm channel of a Licor Odyssey scanner. The fluorescence measured in each well is used as the total fluorescence for each treatment. The cells were then acid washed 2 times with 100 mM glycine, 50 mM KCl, and 20 mM […], pH2.2, then washed two times with ice cold PBS to remove the surface bound antibodies. The plates were scanned again to determine the amount of internalized fluorescence in each well. The 24 hour plates were analyzed the same way the next day.

[4] = Pharmacokinetics and tolerability in non-human primates; settings: therapeutic doses
HER2-driven tumor models = assay: HER2-driven tumor models, combination with trastuzumab and pertuzumab; format: in vivo
[5] = in vivo
[6] = system: low HER2-expressing breast and gastric cancer models; assay: Low HER2-expressing breast and gastric cancer models; format: in vivo; settings: conjugate single doses of 1 mg/kg or […]; Kadcyla at doses of 10 mg/kg and above
BRE-0333 HER2 1+ = BRE-0333 HER2 1+ patient derived xenograft model; format: in vivo; settings: FIG. 18; 3 mg/kg IV single dose; n=8
Procedure: (§1) Tumor growth inhibition (% TGI) was defined as the percent difference in median tumor volumes (MTVs) between treated and control groups.
(§2) Treatment efficacy was determined from the incidence and magnitude of regression responses of the tumor size observed during the study. […] In a PR response, the tumor volume was 50% or less of its Day 1 volume for three consecutive measurements during the course of the study, and equal to or greater than 13.5 mm^3 for one or more of these three measurements. In a CR response, the tumor volume was less than 13.5 mm3 for three consecutive measurements during the course of the study. An animal with a CR response at the termination of a study was additionally classified as a tumor-free survivor (TFS). Animals were monitored for regression responses.

BT474 tumor fragments = assay: BT474 mouse tumor xenograft model; format: in vivo; settings: FIG. 20; 5 mg/kg or 2 mg/kg IV single dose at day 1
MAXF_1162 HER2 3+ = MAXF_1162 HER2 3+ patient derived xenograft model; format: in vivo; settings: FIG. 19, n=10
Procedure: as §1, §2

SKOV3 cells = assay: SKOV3 mouse tumor xenograft model; format: in vivo; settings: FIG. 16
H522 cells = assay: H522 mouse tumor xenograft model; format: in vivo; settings: FIG. 15; Example 16E 5 mg/kg; Example 17B 5 mg/kg; Kadcyla 10 mg/kg; IV single dose
SNU-5 cells = assay: SNU5 mouse tumor xenograft model; format: in vivo; settings: FIG. 13
TOV-21G cells = assay: TOV-21G mouse tumor xenograft model; format: in vivo; settings: FIG. 14; Example 16E 5 mg/kg or 2 mg/kg; Kadcyla 10 mg/kg; IV single dose
Excerpt: as §1
In a PR response, the tumor volume was 50% or less of its Day 1 volume for three consecutive measurements during the course of the study, and equal to or greater than 13.5 mm^3 for one or more of these three measurements. In a CR response, the tumor volume was less than 13.5 mm3 for three consecutive measurements during the course of the study. An animal with a CR response at the termination of a study was additionally classified as a tumor-free survivor (TFS). Animals were monitored for regression responses.
Female NCr nu/nu were inoculated subcutaneously with TOV-21G cells (n=10 for each group). Test compounds or vehicle were dosed IV as a single dose on day 1 or as indicated. Tumor size was measured at the times indicated in FIGS. 8 to 18 using digital calipers. Tumor volume was calculated and was used to determine the delay in tumor growth. Mice were sacrificed when tumors reached a size of 800 to 1500 mm^3. Tumor volumes are reported as the mean±SEM for each group.

NCI-N87 cells = assay: NCI-N87 mouse tumor xenograft model; format: in vivo; settings: FIG. 12; Example 16F […] single dose day 1; trastuzumab 15 mg/kg + pertuzumab 15 mg/kg weekly for 3 weeks
Calu-3 cells = assay: Calu-3 mouse tumor xenograft model; format: in vivo; settings: FIG. 17, 5 mg/kg IV single dose at day 1
[7] = system: phosphorylated AKT in BT474 cells; assay: Ligand-independent HER2 signaling in BT474 cells, phospho-AKT western; format: cell-based; settings: 10 μg/ml antibody, 4 hours, listed as HT19B
Procedure: The effect of anti-HER2 antibodies on HER2 signaling in BT474 cells (ATCC, HTB-20) was determined by measuring changes in the amount of phosphorylated AKT after a 4 hour antibody treatment. BT474 cells (300,000 cells) were plated in DMEM media with 10% FBS in each well of 6 well culture dishes and grown overnight at 37° in 5% CO2 atmosphere. The media was removed and replaced with fresh media containing 10 μg/ml of test antibody and incubated for 4 hours. The cells were washed once with ice cold PBS and lysed by addition of 200 μl of buffer containing 50 mM Tris HCl, pH 7.4, 150 mM NaCl, 1% Triton X-100, cOmplete Protease Inhibitor cocktail tablets (Roche, Indianapolis, Ind.) and PhosSTOP phosphatase Inhibitor cocktail tablets (Roche, Indianapolis, Ind.). Lysates were centrifuged at 15,000 rpm for 15 minutes at 4° to remove insoluble debris. The levels of phosphorylated AKT were determined by western analysis. […] The bands corresponding to AKT, phospho-AKT, and to actin were quantified using the scanner software. Each phospho-AKT band was normalized to the total AKT band and expressed as a percentage of phospho-AKT protein from cells that were not treated with any anti-HER2 antibodies.

[8] = with Trastuzumab and Pertuzumab, 0 hr
[9] = with Trastuzumab and Pertuzumab, 24 hrs
[10] = with Trastuzumab and Pertuzumab, […]

XMT 1519: fully human anti-HER2 IgG1 monoclonal antibody, heavy chain SEQ ID NO: 5, light chain SEQ ID NO: 6
HER2 remaining [1]: 42% | effect on HER2 internalization and localization (SKBR3 cells [2]): promotes the internalization and trafficking of HER2 to the lysosomes | Percent internalized (SKBR3 cells [3]; antibody alone, 0 hr): 2% | Percent internalized (SKBR3 cells [3]; antibody alone, 24 hrs): 83% | Percent internalized (SKBR3 cells [3]; [8]): 2% | Percent internalized (SKBR3 cells [3]; [9]): 88% | Percent internalized (SKBR3 cells [3]; [10]): 83% | Percent internalized (SKBR3 cells [3]; with Trastuzumab, 0 hr): 2% | Percent internalized (SKBR3 cells [3]; with Trastuzumab, 24 hrs): 107%

XMT 1518: affinity matured fully human anti-HER2 IgG1 antibody, heavy chain SEQ ID NO: 3, light chain SEQ ID NO: 4
HER2 remaining [1]: 20% | full length HER2, percentage of untreated cells [1]: 78% | Percent internalized (SKBR3 cells [3]; antibody alone, 24 hrs): 88% | Percent internalized (SKBR3 cells [3]; antibody alone, […]): 16% | Percent internalized (SKBR3 cells [3]; [8]): 2% | Percent internalized (SKBR3 cells [3]; [10]): 90% | Percent internalized (SKBR3 cells [3]; with Trastuzumab, 0 hr): 2% | Percent internalized (SKBR3 cells [3]; with Trastuzumab, 24 hrs): 106% | Percent internalized (SKBR3 cells [3]; with Trastuzumab, […]): 41%

XMT 1519-(EG2-MI-(PHF-BA-(AF-HPA-Ala)))
tolerability [4]: well tolerated | efficacy in combination with trastuzumab and pertuzumab (HER2-driven tumor models): synergistic efficacy | pharmacokinetic profile [5]: excellent pharmacokinetic profile | tumor response [6]: complete regression

XMT 1519-(EG2-MI-(10 kDa PHF-BA-(AF-HPA-Ala))) [Example 16H]
tumor response (BRE-0333 HER2 1+): tumor retardation | tumor response (BT474 tumor fragments): complete tumor regressions | regression responses and tumor free survivors (MAXF_1162 HER2 3+; 1 mg/kg IV single dose at day 1): 100% | regression responses and tumor free survivors (MAXF_1162 HER2 3+; 3 mg/kg IV single dose at day 1): 100%

XMT 1519-(EG2-MI-(10 kDa PHF-BA-(AF-HPA-Ala))) [Example 16E]
complete responses (number of animals) (SKOV3 cells; 5 mg/kg IV single dose, n=10): 10 | regressions (SKOV3 cells; 5 mg/kg IV single dose, n=10): 100% | tumor response (H522 cells): tumor retardation | tumor free survivors (SNU-5 cells; 2 mg/kg IV single dose): 100% | tumor free survivors (SNU-5 cells; 5 mg/kg IV single dose): 100% | tumor response (TOV-21G cells): tumor retardation

XMT 1519-(EG2-MI-(10 kDa PHF-BA-(AF-HPA-Ala))) [Example 16F]
partial response out of ten (NCI-N87 cells): one | remained tumor free (number of animals) (Calu-3 cells; Day 60): six | complete responses (number of animals) (Calu-3 cells; n=10): eight | partial responses (number of animals) (Calu-3 cells; n=10): two | regression responses (Calu-3 cells; n=10): 100%

XMT 1520: affinity matured fully human anti-HER2 IgG1 antibody, heavy chain SEQ ID NO: 7, light chain SEQ ID NO: 8
HER2 remaining [1]: 31% | full length HER2, percentage of untreated cells [1]: 68% | Percent internalized (SKBR3 cells [3]; antibody alone, 0 hr): 2% | Percent internalized (SKBR3 cells [3]; antibody alone, 24 hrs): 78% | Percent internalized (SKBR3 cells [3]; antibody alone, […]): 14% | Percent internalized (SKBR3 cells [3]; [8]): 3% | Percent internalized (SKBR3 cells [3]; [9]): 101% | Percent internalized (SKBR3 cells [3]; [10]): 89% | Percent internalized (SKBR3 cells [3]; with Trastuzumab, 0 hr): 2% | Percent internalized (SKBR3 cells [3]; with Trastuzumab, 24 hrs): 100% | Percent internalized (SKBR3 cells [3]; with Trastuzumab, […]): 23% | AKT phosphorylation, percentage of untreated cells [7]: about 30%

XMT 1517: fully human anti-HER2 IgG1 monoclonal antibody, heavy chain SEQ ID NO: 1, light chain SEQ ID NO: 2
HER2 remaining [1]: 40% | Percent internalized (SKBR3 cells [3]; antibody alone, 0 hr): 4% | Percent internalized (SKBR3 cells [3]; antibody alone, 24 hrs): 83% | Percent internalized (SKBR3 cells [3]; antibody alone, […]): 11% | Percent internalized (SKBR3 cells [3]; [8]): 4% | Percent internalized (SKBR3 cells [3]; [9]): 107% | Percent internalized (SKBR3 cells [3]; with Trastuzumab, 0 hr): 3% | Percent internalized (SKBR3 cells [3]; with Trastuzumab, 24 hrs): 106% | Percent internalized (SKBR3 cells [3]; with Trastuzumab, […]): 17%

rituximab-(EG2-MI-(10 kDa PHF-BA-(AF-HPA-Ala))) [Example 17B, reference compound]
tumor response (SKOV3 cells; Kadcyla 10 mg/kg, Example 17B 5 mg/kg, IV single dose): did not attain the threshold for therapeutic activity | tumor response (H522 cells): did not attain the threshold for therapeutic activity
